35 molecules from patent publication US8796253B2, “Heteroaryl substituted pyrazole derivatives useful for treating hyper-proliferative disorders and diseases associated with angiogenesis” (Bayer Intellectual Property GmbH, priority 2007, dated 2014) can be followed below.

Molecules are shown by their SMILES. Where only a bound is given, the exact number is not on record here.

The first assay has as its system HCT-116 cells stably transfected with a Luciferase reporter gene under the control of HIF-responsive element. Briefly: HIF-Luciferase Assay. The assay is classed as cell-based. Conditions: Homo sapiens, HCT-116, HIF-Luciferase Assay, HCT-116 reporter cells, overnight at 1% oxygen; group >10, unit inferred. As to the method:
HCT-116 cells stably transfected with a Luciferase reporter gene under the control of HIF-responsive element were plated in white 96- or 384-well plates at 30,000 or 5,000 cells/well, respectively, in 50 μL/well media (RPMI with 10% fetal bovine serum and 100 μg/mL Hygromycin). Cells were incubated overnight at 37° C. in a humidified incubator containing 5% CO2 under normal oxygen. The next day test compounds were added to the wells at various concentrations (0-10 μM, 0.1% final DMSO concentration) and placed in a hypoxic chamber overnight at 1% oxygen. Following the exposure to hypoxic conditions, 50 μL/well of Bright Glo reagent (Promega, Wisconsin, USA) was added to the wells and luminescence was measured after 5 min. Cells incubated under normal oxygen levels were used as background control. […] Compounds that have IC50 values between 1 μM and 10 μM include those of Examples 8, 16, 38, 39, 40, 41, 42, 43, 47, 48, 53, 54, 56, 57, 66, 69, and 72.
Broadly, the IC50 is the concentration needed to halve the response being measured. A high value points to weaker potency. Molecule `Cc1ccc(Cn2nc(C3=NC(c4ccc(C(C)(C)C)cc4)CO3)cc2C)cc1` (centres unmarked) [Example 70, 4-(4-tert-butylphenyl)-2-[5-methyl-1-(4-methylbenzyl)-1H-pyrazol-3-yl]-4,5-dihydro-1,3-oxazole] registered an IC50 of more than 10 µM.

In the case of `Cc1ccc(Cn2nc(C3=NC(C(C)C)CO3)cc2C)cc1` (centres unmarked) [Example 71, 4-isopropyl-2-[5-methyl-1-(4-methylbenzyl)-1H-pyrazol-3-yl]-4,5-dihydro-1,3-oxazole], the IC50 is more than 10 µM.

As to `Cc1ccc(Cn2nc(-c3nc4ccc(N5CCN(C)CC5)cc4[nH]3)cc2C)cc1` [Example 50, 2-[5-methyl-1-(4-methylbenzyl)-1H-pyrazol-3-yl]-6-(4-methylpiperazin-1-yl)-1H-benzimidazole], the IC50 was more than 10 µM.

Still in this assay, the particulars now being: Homo sapiens, HCT-116, HIF-Luciferase Assay, HCT-116 reporter cells, overnight at 1% oxygen; individual values.
As for `Cc1ccc(Cn2nc(-c3nc(-c4ccc(N5CCCC5=O)cc4)no3)cc2C)cc1` [Example 24, 1-(4-{5-[5-Methyl-1-(4-methylbenzyl)-1H-pyrazol-3-yl]-1,2,4-oxadiazol-3-yl}phenyl)pyrrolidin-2-one], the IC50 turned out to be 0.08 µM.

The molecule `Cc1ccc(Cn2nc(-c3nc(-c4ccc(OCC(F)(F)F)cc4)no3)cc2C)cc1` [Example 18, 5-[5-Methyl-1-(4-methylbenzyl)-1H-pyrazol-3-yl]-3-[4-(2,2,2-trifluoroethoxy)phenyl]-1,2,4-oxadiazole] came in with an IC50 of 0.03 µM.

On to `Cc1ccc(Cn2nc(-c3nc(-c4ccc(OC(F)(F)F)cc4)no3)cc2C)cc1` [Example 1], for which the IC50 is 0.03 µM.

For the molecule `Cc1ccc(Cn2nc(-c3nc(-c4ccc(C5CCCCC5)cc4)c[nH]3)cc2C)cc1` [Example 68, 3-[4-(4-cyclohexylphenyl)-1H-imidazol-2-yl]-5-methyl-1-(4-methylbenzyl)-1H-pyrazole], inhibition was half-maximal at 0.006 µM (IC50).

In turn, `Cc1ccc(Cn2nc(-c3nc(-c4ccc(C(C)(C)C)cc4)co3)cc2C)cc1` [Example 77, 4-(4-tert-Butylphenyl)-2-[5-methyl-1-(4-methylbenzyl)-1H-pyrazol-3-yl]-1,3-oxazole] came in with an IC50 of 0.02 µM.

Consider `Cc1ccc(Cn2nc(-c3nc(-c4ccc(C(C)(C)C)cc4)no3)cc2C)cc1` [Example 4, 3-(4-tert-butylphenyl)-5-[5-methyl-1-(4-methylbenzyl)-1H-pyrazol-3-yl]-1,2,4-oxadiazole], for which inhibition was half-maximal at 0.005 µM (IC50).

Consider `Cc1cc(-c2nc(-c3ccc(OC(F)(F)F)cc3)no2)nn1Cc1ccc(Cl)cc1` [Example 120, 5-[1-(4-Chlorobenzyl)-5-methyl-1H-pyrazol-3-yl]-3-[4-(trifluoromethoxy)phenyl]-1,2,4-oxadiazole], for which the IC50 is 0.02 µM.

The same assay, now with this note: Homo sapiens, HCT-116, HIF-Luciferase Assay, HCT-116 reporter cells, overnight at 1% oxygen; potency groups.
Turning to `Cc1ccc(Cn2nc(-c3nc(-c4ccc(N5CCCC5=O)cc4)no3)cc2C)cc1` [Example 24, 1-(4-{5-[5-Methyl-1-(4-methylbenzyl)-1H-pyrazol-3-yl]-1,2,4-oxadiazol-3-yl}phenyl)pyrrolidin-2-one], the IC50 is not above 1 µM.

Regarding `Cc1ccc(Cn2nc(-c3nc(-c4ccc(OCC(F)(F)F)cc4)no3)cc2C)cc1` [Example 18, 5-[5-Methyl-1-(4-methylbenzyl)-1H-pyrazol-3-yl]-3-[4-(2,2,2-trifluoroethoxy)phenyl]-1,2,4-oxadiazole], the IC50 is not above 1 µM.

In the case of `Cc1ccc(Cn2nc(-c3nc4cc(-c5cccc(Cl)c5)ccc4o3)cc2C)cc1` [Example 36, 5-(3-chlorophenyl)-2-[5-methyl-1-(4-methylbenzyl)-1H-pyrazol-3-yl]-1,3-benzoxazole], the half-maximal inhibitory concentration (IC50) was not above 1 µM.

Take `Cc1ccc(Cn2nc(-c3nc4ccc(C(C)(C)C)cc4[nH]3)cc2C)cc1` [Example 43, 6-tert-butyl-2-[5-methyl-1-(4-methylbenzyl)-1H-pyrazol-3-yl]-1H-benzimidazole]: the IC50 fell in the range of 1 to 10 µM.

Regarding `Cc1ccc(Cn2nc(-c3nc4ccc(Oc5ccccc5)cc4o3)cc2C)cc1` [Example 30, 2-[5-methyl-1-(4-methylbenzyl)-1H-pyrazol-3-yl]-6-phenoxy-1,3-benzoxazole], the IC50 is not above 1 µM.

In turn, `Cc1ccc(Cn2nc(-c3nc4ccc(-c5cccc(F)c5)cc4[nH]3)cc2C)cc1` [Example 61, 6-(3-fluorophenyl)-2-[5-methyl-1-(4-methylbenzyl)-1H-pyrazol-3-yl]-1H-benzimidazole] showed an IC50 not above 1 µM.

The molecule `Cc1ccc(Cn2nc(-c3nc(-c4ccc(Br)cc4)co3)cc2C)cc1` [Example 75, 4-(4-bromophenyl)-2-[5-methyl-1-(4-methylbenzyl)-1H-pyrazol-3-yl]-1,3-oxazole] returned an IC50 not above 1 µM.

`Cc1ccc(Cn2nc(-c3nc(-c4ccc(OCc5ccc(Cl)cc5)cc4)no3)cc2C)cc1` [Example 2, 3-{4-[(4-chlorobenzyl)oxy]phenyl}-5-[5-methyl-1-(4-methylbenzyl)-1H-pyrazol-3-yl]-1,2,4-oxadiazole]: the IC50 is not above 1 µM.

With `Cc1ccc(Cn2nc(-c3nc4ccncc4[nH]3)cc2C)cc1` [Example 42, 2-[5-methyl-1-(4-methylbenzyl)-1H-pyrazol-3-yl]-3H-imidazo[4,5-c]pyridine], the IC50 is 1 to 10 µM.

`Cc1ccc(Cn2nc(C3=NC(Cc4ccc(Cl)cc4)CO3)cc2C)cc1` (centres unmarked) [Example 72, 4-(4-chlorobenzyl)-2-[5-methyl-1-(4-methylbenzyl)-1H-pyrazol-3-yl]-4,5-dihydro-1,3-oxazole] gave an IC50 of 1 to 10 µM.

For `COCC(=O)Nc1ccc(-c2noc(-c3cc(C)n(Cc4ccc(C)cc4)n3)n2)cc1` [Example 27, 2-methoxy-N-(4-{5-[5-methyl-1-(4-methylbenzyl)-1H-pyrazol-3-yl]-1,2,4-oxadiazol-3-yl}phenyl)acetamide], the IC50 is not above 1 µM.

For `Cc1ccc(Cn2nc(-c3nc(-c4ccc(OC(F)(F)F)cc4)no3)cc2C)cc1` [Example 1], the IC50 is not above 1 µM.

In the case of `Cc1ccc(Cn2nc(-c3nc(-c4ccc(C5CCCCC5)cc4)c[nH]3)cc2C)cc1` [Example 68, 3-[4-(4-cyclohexylphenyl)-1H-imidazol-2-yl]-5-methyl-1-(4-methylbenzyl)-1H-pyrazole], the IC50 is not above 1 µM.

`Cc1ccc(Cn2nc(-c3nc(-c4ccc(-c5ccc(Cl)cc5)cc4)co3)cc2C)cc1` [Example 76, 4-(4′-chlorobiphenyl-4-yl)-2-[5-methyl-1-(4-methylbenzyl)-1H-pyrazol-3-yl]-1,3-oxazole] returned an IC50 not above 1 µM.

The molecule `Cc1ccc(Cn2nc(-c3nc(-c4ccc(C(F)(F)F)nc4)no3)cc2C)cc1` [Example 17, 5-{5-[5-methyl-1-(4-methylbenzyl)-1H-pyrazol-3-yl]-1,2,4-oxadiazol-3-yl}-2-(trifluoromethyl)pyridine] returned an IC50 not above 1 µM.

Molecule `Cc1ccc(Cn2nc(-c3nc(-c4ccc(N5CCCCC5)cc4)no3)cc2C)cc1` [Example 12, 1-(4-{5-[5-methyl-1-(4-methylbenzyl)-1H-pyrazol-3-yl]-1,2,4-oxadiazol-3-yl}phenyl)piperidine] registered an IC50 not above 1 µM.

Molecule `Cc1ccc(Cn2nc(-c3nc(-c4ccc(C(C)(C)C)cc4)co3)cc2C)cc1` [Example 77, 4-(4-tert-Butylphenyl)-2-[5-methyl-1-(4-methylbenzyl)-1H-pyrazol-3-yl]-1,3-oxazole] gave an IC50 not above 1 µM.

`Cc1ccc(Cn2nc(-c3nc(-c4ccccc4)co3)cc2C)cc1` [Example 74, 2-[5-Methyl-1-(4-methylbenzyl)-1H-pyrazol-3-yl]-4-phenyl-1,3-oxazole] returned an IC50 not above 1 µM.

In turn, `Cc1ccc(Cn2nc(-c3nc4ccc(N5CCCCC5)cc4[nH]3)cc2C)cc1` [Example 49, 2-[5-methyl-1-(4-methylbenzyl)-1H-pyrazol-3-yl]-6-piperidin-1-yl-1H-benzimidazole] gave an IC50 not above 1 µM.

Molecule `Cc1ccc(Cn2nc(-c3nc(-c4ccc(C(C)(C)C)cc4)no3)cc2C)cc1` [Example 4, 3-(4-tert-butylphenyl)-5-[5-methyl-1-(4-methylbenzyl)-1H-pyrazol-3-yl]-1,2,4-oxadiazole] registered an IC50 not above 1 µM.

The molecule `Cc1ccc(Cn2nc(-c3nc(-c4ccc(F)cc4)no3)cc2C)cc1` [Example 10, 3-(4-fluorophenyl)-5-[5-methyl-1-(4-methylbenzyl)-1H-pyrazol-3-yl]-1,2,4-oxadiazole] yielded an IC50 not above 1 µM.

`Cc1ccc(Cn2nc(-c3nc4ccc(C#N)cc4[nH]3)cc2C)cc1` [Example 54, 2-[5-methyl-1-(4-methylbenzyl)-1H-pyrazol-3-yl]-1H-benzimidazole-6-carbonitrile] displayed a concentration for half-maximal inhibition (IC50) of 1 to 10 µM.

As for `Cc1ccc(Cn2nc(-c3nc(-c4ccc(C(F)(F)F)cc4)no3)cc2C)cc1` [Example 7, 5-[5-methyl-1-(4-methylbenzyl)-1H-pyrazol-3-yl]-3-[4-(trifluoromethyl)phenyl]-1,2,4-oxadiazole], the IC50 was not above 1 µM.

Molecule `Cc1ccc(Cn2nc(-c3nc4cc(Cl)c(F)cc4[nH]3)cc2C)cc1` [Example 56, 5-chloro-6-fluoro-2-[5-methyl-1-(4-methylbenzyl)-1H-pyrazol-3-yl]-1H-benzimidazole] yielded an IC50 of 1 to 10 µM.

Molecule `Cc1ccc(Cn2nc(-c3nc(-c4ccc(OC(F)(F)F)cc4)c[nH]3)cc2C)cc1` [Example 65, 5-Methyl-1-(4-methylbenzyl)-3-{4-[4-(trifluoromethoxy)phenyl]-1H-imidazol-2-yl}-1H-pyrazole] yielded an IC50 not above 1 µM.

Consider `Cc1ccc(Cn2nc(-c3nc4cc(-c5ccccc5)ccc4o3)cc2C)cc1` [Example 29, 2-[5-Methyl-1-(4-methylbenzyl)-1H-pyrazol-3-yl]-5-phenyl-1,3-benzoxazole], for which the half-inhibitory concentration (IC50) was not above 1 µM.

With `Cc1ccc(Cn2nc(-c3nc(-c4ccccc4)c(-c4ccccc4)[nH]3)cc2C)cc1` [Example 66, 3-(4,5-diphenyl-1H-imidazol-2-yl)-5-methyl-1-(4-methylbenzyl)-1H-pyrazole], the half-maximal inhibitory concentration (IC50) lay in the range of 1 to 10 µM.

For the molecule `Cc1ccc(Cn2nc(-c3nc4ccc(N5CCOCC5)cc4[nH]3)cc2C)cc1` [Example 53, 2-[5-methyl-1-(4-methylbenzyl)-1H-pyrazol-3-yl]-6-morpholin-4-yl-1H-benzimidazole], the IC50 fell in the range of 1 to 10 µM.

Regarding `Cc1ccc(Cn2nc(-c3nc4ccc(C(F)(F)F)cc4[nH]3)cc2C)cc1` [Example 44, 2-[5-methyl-1-(4-methylbenzyl)-1H-pyrazol-3-yl]-6-(trifluoromethyl)-1H-benzimidazole], the IC50 is not above 1 µM.

`Cc1ccc(Cn2nc(-c3nc(-c4ccc(N5CCOCC5=O)cc4)no3)cc2C)cc1` [Example 26, 4-(4-{5-[5-methyl-1-(4-methylbenzyl)-1H-pyrazol-3-yl]-1,2,4-oxadiazol-3-yl}phenyl)morpholin-3-one] had an IC50 not above 1 µM.

`Cc1ccc(Cn2nc(-c3nc4cc5cn[nH]c5cc4[nH]3)cc2C)cc1` [Example 48, 6-[5-methyl-1-(4-methylbenzyl)-1H-pyrazol-3-yl]-1,7-dihydroimidazo[4,5-f]indazole] registered an IC50 of 1 to 10 µM.
